From patent publication US12344610B2, “APOL1 inhibitors and methods of use” (Maze Therapeutics, Inc., priority 2022, dated 2025)

Key:
APOL1 G2 = target: T1, APOL1 G2 (Homo sapiens, UniProt O14791, DEL388-389); test: APOL1-mediated calcium transport (calcium influx) assay, HEK T-REx/GCaMP6f/APOL1 G2 K6.3 cells, FLIPR TETRA; assay type: cell-based; conditions: prevention of calcium influx; geometric mean of at least 2 assay runs; † = average of a technical replicate from a single assay run
T1 construct: expressed in transfected cells; host or cells: HEK293 T-REx clonal line stably expressing GCaMP6f (HEK T-REx/GCaMP6f/APOL1 G2 K6.3), doxycycline induced
T1 sequence (O14791 with tags, fused parts or gaps DEL388-389): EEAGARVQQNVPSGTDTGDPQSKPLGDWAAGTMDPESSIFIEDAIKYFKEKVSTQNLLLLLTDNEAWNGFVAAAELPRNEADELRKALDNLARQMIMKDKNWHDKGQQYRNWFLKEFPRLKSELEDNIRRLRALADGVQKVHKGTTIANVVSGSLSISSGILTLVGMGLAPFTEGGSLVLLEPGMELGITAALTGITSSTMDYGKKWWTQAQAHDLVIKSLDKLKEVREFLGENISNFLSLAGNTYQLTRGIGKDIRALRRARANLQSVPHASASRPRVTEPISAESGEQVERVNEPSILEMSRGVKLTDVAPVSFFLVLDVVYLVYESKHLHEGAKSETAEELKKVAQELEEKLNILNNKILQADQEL
In short: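 A HEK293 T-REx clone stably expressing GCaMP6f had APOL1 G2 induced with doxycycline (20 ng/mL solution added) for 6 h. Cells were then washed into Ca2+-free Tyrode's buffer (pH 7.4) and preincubated with compounds (duplicate 8-point) for 10 min at room temperature. Ca2+ injection to 5 mM final produced FLIPR GCaMP fluorescence, giving AC50 for influx inhibition (geometric mean, ≥2 runs).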

[1] = tested on: HEK293 clonal cell line overexpressing APOL1 G1; test: APOL1 G1 HEK293 cell rescue assay (Example B3); assay type: cell-based; conditions: geometric mean of at least 2 runs, † = single run, ¥ = concentration at 50% rescue estimated (no sigmoidal curve)
In short: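 Rescue of cell death caused by APOL1 G1 overexpression was measured in a clonal HEK293 line. Compounds were tested in duplicate on one plate, and EC50s were geometric means across at least two runs on different days. Some values are estimated 50%-rescue concentrations where curve fitting failed.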

[2] = Homo sapiens, HEK293, HEK293 clonal line overexpressing APOL1 G1

For `C[C@]1(O)C[C@@H](n2nnc3cc(OCCN4CCC5(CC4)C(=O)Nc4ccc(C#N)cc45)cc(C(F)(F)F)c32)C1` [Compound 435, 2-oxo-1′-[2-({1-[(cis)-3-hydroxy-3-methylcyclobutyl]-7-(trifluoromethyl)-1H-1,2,3-benzotriazol-5-yl}oxy)ethyl]-1,2-dihydrospiro[indole-3,4′-piperidine]-5-carbonitrile], the AC50 (APOL1 G2) was 1170 nM and the EC50 [1, 2] was 38.4 nM.

Compound `CC1(O)CC(CN2C(=O)CCc3cc(OCCN4CCC5(CC4)C(=O)Nc4ccc(Cl)cc45)cnc32)C1` (single isomer, unassigned) [Compound 322, 5-chloro-1′-{2-[(7-oxo-8-{[(trans) or (cis)-3-hydroxy-3-methylcyclobutyl]methyl}-5,6,7,8-tetrahydro-1,8-naphthyridin-3-yl)oxy]ethyl}-1,2-dihydrospiro[indole-3,4′-piperidin]-2-one] has an AC50 (APOL1 G2) of 588 nM and an EC50 ([1]; HEK293 clonal line overexpressing APOL1 G1) of 38.6 nM.

Work on `CS(=O)(=O)c1ccc(OCCN2CCC3(CC2)C(=O)Nc2ccc(Cl)cc23)cc1C#N` [Compound 50, 5-(2-{5-chloro-2-oxo-1,2-dihydrospiro[indole-3,4′-piperidin]-1′-yl}ethoxy)-2-methanesulfonylbenzonitrile] yielded an AC50 (APOL1 G2) of 622 nM and an EC50 [1, 2] of 91.1 nM.

Compound `CC(c1ncc(OCCN2CCC3(CC2)C(=O)Nc2ccc(Cl)cc23)cn1)S(C)(=O)=O` (stereo not shown) [Compound 1, 5-Chloro-1′-(2-{[2-(1-methanesulfonylethyl)pyrimidin-5-yl]oxy}ethyl)-1,2-dihydrospiro[indole-3,4′-piperidin]-2-one] has an AC50 (APOL1 G2) of 703 nM and an EC50 [1, 2] of 302 nM.

Compound `Cc1nc2cc(OCCN3CCC4(CC3)C(=O)Nc3ccc(Cl)cc34)cc(C(F)(F)F)c2n1[C@H]1C[C@@](C)(O)C1` [Compound 442, 5-chloro-1′-[2-({2-methyl-1-[(cis)-3-hydroxy-3-methylcyclobutyl]-7-(trifluoromethyl)-1H-1,3-benzodiazol-5-yl}oxy)ethyl]-1,2-dihydrospiro[indole-3,4′-piperidin]-2-one] has an AC50 (APOL1 G2) of 2140 nM and an EC50 [1, 2] of 15.6 nM.

`CC(C)(O)c1ncc(OCCN2CCC3(CC2)C(=O)Nc2ccc(C#N)cc23)cc1C(F)(F)F` [Compound 411, 1′-(2-{[6-(2-hydroxypropan-2-yl)-5-(trifluoromethyl)pyridin-3-yl]oxy}ethyl)-2-oxo-1,2-dihydrospiro[indole-3,4′-piperidine]-5-carbonitrile] was tested, and the AC50 (APOL1 G2) was 436 nM and the EC50 [1, 2] was 55.6 nM.

With `C[C@]1(O)C[C@@H](n2cnc3cc(OCCN4CCC5(CC4)C(=O)Nc4ccc(Cl)cc45)cc(C(F)(F)F)c32)C1` [Compound 352, 5-chloro-1′-[2-({1-[(cis)-3-hydroxy-3-methylcyclobutyl]-7-(trifluoromethyl)-1H-1,3-benzodiazol-5-yl}oxy)ethyl]-1,2-dihydrospiro[indole-3,4′-piperidin]-2-one] the AC50 (APOL1 G2) was 597 nM and the EC50 [1, 2] was 9.95 nM.

Compound `CS(=O)(=O)c1ccc(OCCN2CCC3(CC2)C(=O)Nc2ccc(Cl)cc23)cc1F` [Compound 63, 5-chloro-1′-[2-(3-fluoro-4-methanesulfonylphenoxy)ethyl]-1,2-dihydrospiro[indole-3,4′-piperidin]-2-one] has an AC50 (APOL1 G2) of 461 nM and an EC50 [1, 2] of 160 nM.

For `C[C@]1(O)C[C@@H](n2c(=O)ccc3cc(OCCN4CCC5(CC4)C(=O)Nc4ccc(C(F)F)cc45)cnc32)C1` [Compound 324, 5-(difluoromethyl)-1′-[2-({7-oxo-8-[(cis)-3-hydroxy-3-methylcyclobutyl]-7,8-dihydro-1,8-naphthyridin-3-yl}oxy)ethyl]-1,2-dihydrospiro[indole-3,4′-piperidin]-2-one], the AC50 (APOL1 G2) was 942 nM and the EC50 [1, 2] was 40.8 nM.

With `C[C@]1(O)C[C@@H](n2cc3cc(OCCN4CCC5(CC4)C(=O)Nc4ccc(C#N)cc45)cc(C(F)(F)F)c3n2)C1` [Compound 428, 2-oxo-1′-[2-({2-[(cis)-3-hydroxy-3-methylcyclobutyl]-7-(trifluoromethyl)-2H-indazol-5-yl}oxy)ethyl]-1,2-dihydrospiro[indole-3,4′-piperidine]-5-carbonitrile] the AC50 (APOL1 G2) was 1200 nM and the EC50 [1, 2] was 89.6 nM.

In the case of `CC[C@]1(O)C[C@@H](N2C(=O)CCc3cc(OCCN4CCC5(CC4)C(=O)Nc4ccc(Cl)cc45)cnc32)C1` (single isomer, unassigned) [Compound 321, 5-chloro-1′-[2-({7-oxo-8-[(cis)-3-ethyl-3-hydroxycyclobutyl]-5,6,7,8-tetrahydro-1,8-naphthyridin-3-yl}oxy)ethyl]-1,2-dihydrospiro[indole-3,4′-piperidin]-2-one], the AC50 (APOL1 G2) is reported as 621 nM and the EC50 [1, 2] is reported as 47.7 nM.

Compound `CS(=O)(=O)c1ccc(OCCN2CCC3(CC2)C(=O)Nc2ccc(Br)cc23)cc1` [Compound 72, 5-bromo-1′-[2-(4-methanesulfonylphenoxy)ethyl]-1,2-dihydrospiro[indole-3,4′-piperidin]-2-one] has an AC50 (APOL1 G2) of 252 nM and an EC50 [1, 2] of 161 nM.

With `NC(=O)c1ccc(OCCN2CCC3(CC2)C(=O)Nc2ccc(Cl)cc23)cc1` [Compound 45, 4-(2-{5-chloro-2-oxo-1,2-dihydrospiro[indole-3,4′-piperidin]-1′-yl}ethoxy)benzamide] the AC50 (APOL1 G2) was 746 nM and the EC50 [1, 2] was 387 nM.

For `CC(C)(CO)c1ncc(OCCN2CCC3(CC2)C(=O)Nc2ccc(Cl)cc23)cn1` [Compound 334, 5-chloro-1′-(2-{[2-(1-hydroxy-2-methylpropan-2-yl)pyrimidin-5-yl]oxy}ethyl)-1,2-dihydrospiro[indole-3,4′-piperidin]-2-one], the AC50 (APOL1 G2) was 2000 nM and the EC50 [1, 2] was 269 nM.

Compound `CC(CO)(c1ncc(OCCN2CCC3(CC2)C(=O)Nc2ccc(Cl)cc23)cc1C(F)(F)F)S(C)(=O)=O` (stereo not shown) [Compound 401, 5-chloro-1′-(2-{[6-(1-hydroxy-2-methanesulfonylpropan-2-yl)-5-(trifluoromethyl)pyridin-3-yl]oxy}ethyl)-1,2-dihydrospiro[indole-3,4′-piperidin]-2-one] has an AC50 (APOL1 G2) of 603 nM and an EC50 [1, 2] of 68.2 nM.

`CS(=O)(=O)c1c(F)cc(OCCN2CCC3(CC2)C(=O)Nc2ccccc23)cc1F` [Compound 42, 1′-[2-(3,5-difluoro-4-methanesulfonylphenoxy)ethyl]-1,2-dihydrospiro[indole-3,4′-piperidin]-2-one] gave an AC50 (APOL1 G2) of 316 nM and an EC50 [1, 2] of 1080 nM.

With `C[C@]1(O)C[C@@H](N2C(=O)C3(CC3)c3cc(OCCN4CCC5(CC4)C(=O)Nc4ccc(Cl)cc45)cnc32)C1` [Compound 460, 5-chloro-1′-(2-{2′-oxo-1′-[(cis)-3-hydroxy-3-methylcyclobutyl]-1′,2′-dihydrospiro[cyclopropane-1,3′-pyrrolo[2,3-b]pyridin]-5′-yloxy}ethyl)-1,2-dihydrospiro[indole-3,4′-piperidin]-2-one] the AC50 (APOL1 G2) was 317 nM and the EC50 [1, 2] was 97.7 nM.

Compound `CN(c1ccc(OCCN2CCC3(CC2)C(=O)Nc2ccc(C#N)cc23)cc1)S(C)(=O)=O` [Compound 75, N-[4-(2-{5-cyano-2-oxo-1,2-dihydrospiro[indole-3,4′-piperidin]-1′-yl}ethoxy)phenyl]-N-methylmethanesulfonamide] has an AC50 (APOL1 G2) of 689 nM and an EC50 [1, 2] of 406 nM.

Work on `C[C@]1(O)C[C@@H](N2C(=O)NCc3cc(OCCN4CCC5(CC4)C(=O)Nc4ccc(Cl)cc45)cnc32)C1` [Compound 356, 5-chloro-1′-[2-({2-oxo-1-[(cis)-3-hydroxy-3-methylcyclobutyl]-1H,2H,3H,4H-pyrido[2,3-d]pyrimidin-6-yl}oxy)ethyl]-1,2-dihydrospiro[indole-3,4′-piperidin]-2-one] yielded an AC50 (APOL1 G2) of 2490 nM and an EC50 [1, 2] of 162 nM.

Compound `C[C@]1(O)C[C@@H](n2cc3cc(OCCN4CCC5(CC4)C(=O)Nc4ccc(Cl)cc45)cc(C(F)(F)F)c3n2)C1` [Compound 427, 5-chloro-1′-[2-({2-[(cis)-3-hydroxy-3-methylcyclobutyl]-7-(trifluoromethyl)-2H-indazol-5-yl}oxy)ethyl]-1,2-dihydrospiro[indole-3,4′-piperidin]-2-one] has an AC50 (APOL1 G2) of 708 nM and an EC50 [1, 2] of 35.8 nM.

Compound `C[C@]1(O)C[C@@H](n2cnc3cc(OCCN4CCC5(CC4)C(=O)Nc4ccc(C(F)F)cc45)cc(C(F)(F)F)c32)C1` [Compound 450, 5-(difluoromethyl)-1′-[2-({1-[(cis)-3-hydroxy-3-methylcyclobutyl]-7-(trifluoromethyl)-1H-1,3-benzodiazol-5-yl}oxy)ethyl]-1,2-dihydrospiro[indole-3,4′-piperidin]-2-one] has an AC50 (APOL1 G2) of 2270 nM and an EC50 [1, 2] of 14.9 nM.

In the case of `Cn1ncc2cc(OCCN3CCC4(CC3)C(=O)Nc3ccccc34)ccc21` [Compound 70, 1′-{2-[(1-methyl-1H-indazol-5-yl)oxy]ethyl}-1,2-dihydrospiro[indole-3,4′-piperidin]-2-one], the AC50 (APOL1 G2) is reported as 124 nM and the EC50 [1, 2] is reported as greater than 2530 nM.

`CC(=O)N1Cc2ccc(OCCN3CCC4(CC3)C(=O)Nc3ccc(Cl)cc34)cc2C1` [Compound 57, 1′-{2-[(2-acetyl-2,3-dihydro-1H-isoindol-5-yl)oxy]ethyl}-5-chloro-1,2-dihydrospiro[indole-3,4′-piperidin]-2-one] was tested, and the AC50 (APOL1 G2) was 706 nM and the EC50 [1, 2] was 390 nM.
